“Also recorded” adds a separate entry of the source.

In one series the test system is 1833 breast cancer cells. As to the kind of experiment: ISG expression in breast cancer cells after RNA transfection (qRT-PCR). It is filed as cell-based, Human. The protocol: Gene Targeting and Expression. Gene knockdown by siRNA was completed using SMARTPool siRNAs (Thermo) and transfected using 20 nM siRNA and RNAiMax (Invitrogen) transfection reagent. For stable knockdowns, shRNAs were cloned into the pGIPZ vector and transduced by virus using pCMV-VSV-G and pHR8.2AR envelope and packaging vectors in HEK293T cells. Transduced cells were selected using 1-2 ug/ml of puromycin. Wild-type and K858A/K861A binding mutant of RIG-I was cloned into the pOZ-N vector. Transduced cells were then selected with IL-2 receptor magnetic beads and expression was confirmed by Western blot for FLAG, HA, and RIG-I. RIG-I restoration was functionally confirmed by RIG-I pathway activation in response to Sendai virus infection. SRP9 and SRP14 were transiently transfected with pGFH-9 (Addgene plasmid #39538) and pGFH-14c (Addgene plasmid #39541), both gifts from Katharina Strub. Gene knockout by CRISPR was accomplished using pSpCas9 (BB)-2A-GFP (PX458) (Addgene plasmid #48138). RIG-I was knocked out utilizing the protocol described (Ran et al. (2013) Nat. Protoc. 8, 2281-2308). In brief, two distinct guide RNAs cloned into the pSpCas9 (BB)-2A-GFP backbone were transiently transfected into breast cancer cells. After 48 hours, single cells were sorted into 96 well single cell clones based on highest GFP expression. Clones were confirmed to have no RIG-I expression by immunoblot and pooled. RIG-I KO in the pooled clones were functionally confirmed by RIG-I pathway activation in response to Sendai virus infection.
In Vitro Transcription. In vitro transcription was performed using of PCR amplified cDNA templates that contained Hepatitis Delta Virus Ribozyme to ensure homogenous 3′ ends of the transcripts of interest (Avis et al. (2012) Methods Mol. Biol. 941, 83-97). In vitro transcription was completed with the MEGAshortscript T7 Transcription Kit (ThermoFisher) according to manufacturer's instructions. RNA was DNase treated and phenol/chloroform purified. After thermocycling to ensure ribozyme cleavage, correct size transcripts were gel purified. […]
On the technique in general: In qPCR the cycle at which signal appears reflects the starting amount.

For a further series, the target named is T1, recombinant RIG-I (Homo sapiens, UniProt O95786).
T1 sequence (O95786 1-925): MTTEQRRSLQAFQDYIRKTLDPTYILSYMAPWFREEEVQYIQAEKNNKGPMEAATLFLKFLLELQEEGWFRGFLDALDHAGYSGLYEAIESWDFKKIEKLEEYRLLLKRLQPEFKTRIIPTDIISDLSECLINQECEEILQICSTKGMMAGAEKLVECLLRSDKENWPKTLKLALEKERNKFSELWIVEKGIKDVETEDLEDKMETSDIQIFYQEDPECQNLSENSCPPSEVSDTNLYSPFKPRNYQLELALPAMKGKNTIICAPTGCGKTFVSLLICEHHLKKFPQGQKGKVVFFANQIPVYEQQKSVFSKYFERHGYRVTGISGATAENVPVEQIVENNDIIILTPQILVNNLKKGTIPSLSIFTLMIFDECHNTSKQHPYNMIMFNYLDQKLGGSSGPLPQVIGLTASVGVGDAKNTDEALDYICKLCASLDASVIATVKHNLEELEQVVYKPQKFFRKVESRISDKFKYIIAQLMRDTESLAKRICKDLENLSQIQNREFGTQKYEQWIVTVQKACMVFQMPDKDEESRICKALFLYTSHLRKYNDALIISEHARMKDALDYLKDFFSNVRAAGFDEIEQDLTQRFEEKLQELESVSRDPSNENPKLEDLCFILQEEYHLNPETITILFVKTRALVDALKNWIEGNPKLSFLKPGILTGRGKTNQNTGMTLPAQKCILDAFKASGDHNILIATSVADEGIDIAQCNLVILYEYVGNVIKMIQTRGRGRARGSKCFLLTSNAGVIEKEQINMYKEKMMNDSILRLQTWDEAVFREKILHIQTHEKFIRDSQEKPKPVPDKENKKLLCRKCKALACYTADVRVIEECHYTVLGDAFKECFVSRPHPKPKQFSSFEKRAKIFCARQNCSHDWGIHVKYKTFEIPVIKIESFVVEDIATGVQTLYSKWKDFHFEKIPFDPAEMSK
As to the kind of experiment: RIG-I ATPase assay (ATP hydrolysis). The series is classed as biochemical. The note with it: RNA added to recombinant RIG-I, equimolar amounts. The protocol: RIG-I ATPase Assays. RIG-I ATPase assays were performed as previously described (Devarkar et al. (2016) Proc. Natl. Acad. Sci. 113, 596-601). In brief, increasing amounts of RNA (10-60 nM) were added to a constant quantity of RIG-I (5 nM) in the presence of 1 mM ATP. ATP hydrolysis was measured with the EnzChek Phosphate Assay Kit (ThermoFisher) after 60-90 minutes at 37° C. ATP hydrolysis was then measured by absorbance of 360 nm compared to background. A 19-mer 5′triphosphate dsRNA (Invivogen) and DVG396 were used as positive controls and a 19-mer 5′OH dsRNA (Invivogen) and an in vitro transcribed 300 bp ssRNA stretch of GAPDH (GAPDH300) were used as negative controls.

Regarding “RN7SL1: Human RN7SL1 (7SL, srpRNA) RNA, 5'ppp, in vitro transcribed or secreted unshielded in exosomes; SEQ ID NO: 2”, the “ISG induction after transfection” value in the series with 1833 breast cancer cells (1833 cells, RIG-I wild type) was “induces ISGs in breast cancer cells specifically in a RIG-I-dependent manner”; in the series on 1833 breast cancer cells (RIG-I KO cells with re-expression of WT RIG-I) it was “restored antiviral signaling”; in the series on 1833 breast cancer cells (alkaline phosphatase treatment prior to transfection), “abolished ISG induction”. Also, in the series with recombinant RIG-I, the “RIG-I ATP helicase activity as measured by ATP hydrolysis” value is listed as “directly binds recombinant RIG-I; also recorded: comparable to an equimolar amount of Sendai virus-derived RNA (DVG396)”.

Source of the values: patent US12571052B2, “Immunomodulatory RNA” (THE TRUSTEES OF THE UNIVERSITY OF PENNSYLVANIA, priority 2017, dated 2026).
